Assays:
rat mGluR5 receptor = molecular target: T1, rat mGluR5 receptor (Rattus norvegicus, UniProt P31424); assay: [3H]-MPEP binding HEK-293 cell membranes expressing a rat mGluR5 receptor; settings: displacement of 4 nM [3H]-MPEP, HEK-293 cell membranes expressing rat mGluR5, 60 minute at room temperature; read-out: mGluR5 Ligand Binding DR Ki
T1 construct: expressed in transfected cells; host or cells: HEK-293
Procedure: TITLE: [^3H]-MPEP binding HEK-293 cell membranes expressing a rat mGluR5 receptor. PURPOSE: To identify high affinity compounds at the rat mGluR5 receptor based on their ability to displace the mGluR5 negative allosteric modulator, MPEP.
mGluR5 expressing HEK-293 cells are scraped off the plate, transferred to centrifuge tubes, and washed twice by centrifugation (2000 rpm for 10 min., 4° C.) in buffer (50 mM Tris pH 7.5). The resulting pellets are aliquoted and placed at −80° C. On the day of assay, the cells are thawed on ice, and resuspended in buffer. The binding assay is performed in a 96 well microtiter plate in a total volume of 250 μL. Non-specific binding is determined in the presence of 10 μM MPEP. Binding reaction includes a final radioligand [^3H]-MPEP concentration of 4 nM and 12-25 ug membrane protein per well. Following a 60 minute incubation at room temperature, the reaction is terminated by the addition of ice cold buffer and rapid filtration through a GF/B filter presoaked for 30 minutes in 0.5% PEI. Compounds are initially tested in a single point assay to determine percent inhibition at 10 μM. Subsequently, Ki values are determined for compounds defined to be active.
% inhibition and Ki values generated by GraphPad Prism and Excel Fit. IC50 values are calculated using GraphPad by fitting to a 1 or 2 site-binding model. Ki values are calculated from the apparent IC50 values using the Cheng-Prussof equation:
(§1) where [L]=concentration of free radioligand and Kd=dissociation constant of radioligand for the receptor. TITLE: Identification of metabotropic glutamate receptor 5 antagonists using a stable, sensitive fluorescence-based screening system PURPOSE: The aim of the research presented here was to develop a robust functional assay to measure changes in intracellular calcium, with the goal of identifying potent mGluR5 antagonists.

[1] = molecular target: T2, metabotropic glutamate receptor 5 (Rattus norvegicus, UniProt P31424); assay: FLIPR Calcium 3 fluorescence-based functional assay of intracellular calcium, mGluR5 antagonist activity; format: cell-based; settings: inhibition of glutamate (EC90, ~50 uM) stimulated calcium levels, mGluR5 HEK-293 cells; read-out: mGluR5 FLIPR MP Antagonist DR IC50
T2 construct: expressed in transfected cells; host or cells: HEK-293
Excerpt: as §1
The FLIPR Calcium 3 Assay Kit is designed to work with many cell types, both adherent and non-adherent. Optimal cell conditions for the FLIPR Calcium 3 Assay Kit require the creation of a confluent cell monolayer before placing the plates in FLIPR or FlexStation. In general, we start with 50,000 mGluR5 HEK-293 cells/well for a 96-well plate. For adherent cells, seeding cells overnight with a plating volume of 100 μL/well worked for 96-well plates.
Remove cell plates from the incubator. Remove the supernatant medium. Add 180 ul of Loading Buffer to each well (for 96-well plates). HBSS buffer component B) pipette 100 mL of 10× Hank's Balanced Salt Solution and 20 mL of 1M Hepes buffer
Incubate cell plates for 1 hour at 37° C. and then keep the plates at room temperature until used.
After incubation, transfer the plates directly to FLIPR and begin the calcium assay as described in the FLIPR system manual. For a signal test, a starting average count of ˜10,000 is recommended. Recommended experimental setup parameters are as follows. Faster addition speeds can lead to better mixing of compounds and lower signal variance across the plate.
Test or reference compound is added to the 96-well plate (manually). […] Relative Fluorescence Units (RFUs) are recorded over a given time period (stated above) depending on the platform system used.
For antagonists, results are expressed as % inhibition of glutamate stimulated Calcium levels. IC50 values were calculated by Prism GraphPad using a 4-parameter logistic equation. IC50 values are calculated using GraphPad by fitting to a 1 site-model.

T2 sequence (P31424 21-1203): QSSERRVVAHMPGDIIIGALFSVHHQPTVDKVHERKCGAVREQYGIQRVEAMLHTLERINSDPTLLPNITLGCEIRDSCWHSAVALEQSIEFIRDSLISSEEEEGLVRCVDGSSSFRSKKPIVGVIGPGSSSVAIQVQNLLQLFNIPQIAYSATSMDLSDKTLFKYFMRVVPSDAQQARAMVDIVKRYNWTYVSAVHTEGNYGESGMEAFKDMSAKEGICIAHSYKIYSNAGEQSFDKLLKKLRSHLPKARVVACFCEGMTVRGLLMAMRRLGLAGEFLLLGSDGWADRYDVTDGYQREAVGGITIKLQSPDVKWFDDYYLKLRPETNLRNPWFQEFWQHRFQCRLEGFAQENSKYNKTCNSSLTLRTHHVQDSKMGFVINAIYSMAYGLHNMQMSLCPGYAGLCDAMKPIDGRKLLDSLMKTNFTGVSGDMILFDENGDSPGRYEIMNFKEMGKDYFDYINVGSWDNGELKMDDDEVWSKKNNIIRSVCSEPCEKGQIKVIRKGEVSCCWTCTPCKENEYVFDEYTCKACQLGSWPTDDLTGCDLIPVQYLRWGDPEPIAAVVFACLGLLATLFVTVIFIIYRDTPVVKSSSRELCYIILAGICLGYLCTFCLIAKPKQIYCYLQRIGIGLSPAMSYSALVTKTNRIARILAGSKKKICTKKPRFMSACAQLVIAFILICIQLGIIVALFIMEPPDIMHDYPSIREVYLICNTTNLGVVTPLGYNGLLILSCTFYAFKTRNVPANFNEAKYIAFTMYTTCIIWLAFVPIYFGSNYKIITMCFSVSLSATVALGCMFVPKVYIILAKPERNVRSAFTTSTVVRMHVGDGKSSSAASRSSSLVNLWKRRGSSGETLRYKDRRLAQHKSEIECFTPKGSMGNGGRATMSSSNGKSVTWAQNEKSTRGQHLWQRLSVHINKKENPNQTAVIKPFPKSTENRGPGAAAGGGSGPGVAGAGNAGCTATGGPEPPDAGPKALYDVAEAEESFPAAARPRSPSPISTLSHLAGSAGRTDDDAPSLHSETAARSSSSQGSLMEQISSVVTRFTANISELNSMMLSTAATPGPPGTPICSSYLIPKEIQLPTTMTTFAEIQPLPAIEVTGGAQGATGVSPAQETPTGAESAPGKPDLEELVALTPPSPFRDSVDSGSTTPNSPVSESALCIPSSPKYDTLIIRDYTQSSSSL
T1 sequence (P31424 21-1203): as above

SMILES | Ki (rat mGluR5 receptor) | IC50 [1]
COc1ccc(C(=O)N2CCc3cccc(C(F)(F)F)c3C2)cc1C#Cc1ccccn1 [Example 5, 2-[4-methoxy-3-(pyridin-2-ylethynyl)benzoyl]-8-(trifluoromethyl)-1,2,3,4-tetrahydroisoquinoline] | 2 nM | 151 nM
O=C(c1ccc(F)c(C#Cc2ccccn2)c1)N1CCc2c(Cl)cccc2C1 [Example 73, 5-chloro-2-[4-fluoro-3-(pyridin-2-ylethynyl)benzoyl]-1,2,3,4-tetrahydroisoquinoline] | 1 nM | 40 nM
O=C(c1ccc(C(F)(F)F)c(C#Cc2ccccn2)c1)N1Cc2cccnc2C1 [Example 92, 6-{[3-(Pyridin-2-ylethynyl)-4-(trifluoromethyl)phenyl]carbonyl}-6,7-dihydro-5H-pyrrolo[3,4-b]pyridine] | 3 nM | 7 nM
COc1ccc(C(=O)N2Cc3cnc(C)c(Cl)c3C2)cc1C#Cc1ccccn1 [Example 43, 7-chloro-2-[4-methoxy-3-(pyridin-2-ylethynyl)benzoyl]-6-methyl-2,3-dihydro-1H-pyrrolo[3,4-c]pyridine] | 12 nM | 17 nM
COc1ccc(C(=O)N2CCc3ccccc3C2c2ccco2)cc1C#Cc1ccccn1 (centres unmarked) [Example 27, 1-(2-furyl)-2-[4-methoxy-3-(pyridin-2-ylethynyl)benzoyl]-1,2,3,4-tetrahydroisoquinoline] | 21 nM | 40 nM
Cc1ccc(C(=O)N2CCc3cccnc3C2)cc1C#Cc1ccccn1 [Example 86, 7-{[4-Methyl-3-(pyridin-2-ylethynyl)phenyl]carbonyl}-5,6,7,8-tetrahydro-1,7-naphthyridine] | 11 nM | 8 nM
O=C(c1ccc(C(F)(F)F)c(C#Cc2ccccn2)c1)N1CCc2[nH]cnc2C1 [Example 101, 5-{[3-(Pyridin-2-ylethynyl)-4-(trifluoromethyl)phenyl]carbonyl}-4,5,6,7-tetrahydro-1H-imidazo[4,5-c]pyridine] | 36 nM | 18 nM
O=C(c1ccc(C(F)(F)F)c(C#Cc2ccccn2)c1)N1CCc2ncc(Br)cc2C1 [Example 97, 3-Bromo-6-{[3-(pyridin-2-ylethynyl)-4-(trifluoromethyl)phenyl]carbonyl}-5,6,7,8-tetrahydro-1,6-naphthyridine] | 1 nM | 13 nM
COc1ccc(C(=O)N2Cc3ccccc3C(Oc3ccc(C(F)(F)F)cc3)C2)cc1C#Cc1ccccn1 (centres unmarked) [Example 24, 2-[4-methoxy-3-(pyridin-2-ylethynyl)benzoyl]-4-[4-(trifluoromethyl)phenoxy]-1,2,3,4-tetrahydroisoquinoline] | 520 nM | –
COc1ccc(C(=O)N2CCc3ccccc3[C@H]2[C@@H]2CCCO2)cc1C#Cc1ccccn1 [Example 28, (1S)-2-[4-methoxy-3-(pyridin-2-ylethynyl)benzoyl]-1-[(2S)-tetrahydrofuran-2-yl]-1,2,3,4-tetrahydroisoquinoline] | 178 nM | –
O=C(c1ccc(Cl)c(C#Cc2ccccn2)c1)N1Cc2cccnc2C1 [Example 65, 6-{[4-chloro-3-(pyridin-2-ylethynyl)phenyl]carbonyl}-6,7-dihydro-5H-pyrrolo[3,4-b]pyridine] | 3 nM | 18 nM
COc1ccc(C(=O)N2CCc3ccccc3C2c2cccs2)cc1C#Cc1ccccn1 (centres unmarked) [Example 22, 2-[4-methoxy-3-(pyridin-2-ylethynyl)benzoyl]-1-(2-thienyl)-1,2,3,4-tetrahydroisoquinoline] | 22 nM | 220 nM
COc1ccc(C(=O)N2CCc3ccccc3C2)cc1C#Cc1ccccn1 [Example 2, 2-[4-methoxy-3-(pyridin-2-ylethynyl)benzoyl]-1,2,3,4-tetrahydroisoquinoline] | 3 nM | 24 nM
O=C(c1ccc(Cl)c(C#Cc2ccccn2)c1)N1CCc2ccccc2C1 [Example 61, 2-[4-Chloro-3-(pyridin-2-ylethynyl)benzoyl]-1,2,3,4-tetrahydroisoquinoline] | 0.4 nM | 13 nM
COc1ccc(C(=O)N2CCc3ncc(C)cc3C2)cc1C#Cc1ccccn1 [Example 40, 6-[4-methoxy-3-(pyridin-2-ylethynyl)benzoyl]-3-methyl-5,6,7,8-tetrahydro-1,6-naphthyridine] | 22 nM | 21 nM
O=C(c1ccc(Cl)c(C#Cc2ccccn2)c1)N1CCc2c(F)cccc2C1 [Example 64, 2-{[4-chloro-3-(pyridin-2-ylethynyl)phenyl]carbonyl}-5-fluoro-1,2,3,4-tetrahydroisoquinoline] | 0.4 nM | 16 nM
COc1ccc(C(=O)N2C3CCC2c2ccccc23)cc1C#Cc1ccccn1 [Example 18, 9-[4-methoxy-3-(pyridin-2-ylethynyl)benzoyl]-1,2,3,4-tetrahydro-1,4-epiminonaphthalene] | 1120 nM | –
COc1ccc(C(=O)N2CCc3c(Cl)cc(Cl)cc3C2)cc1C#Cc1ccccn1 [Example 7, 5,7-dichloro-2-[4-methoxy-3-(pyridin-2-ylethynyl)benzoyl]-1,2,3,4-tetrahydroisoquinoline] | – | 176 nM
O=C(c1ccc(OCC2CC2)c(C#Cc2ccccn2)c1)N1Cc2ccccc2C1 [Example 80, 2-{[4-(Cyclopropylmethoxy)-3-(pyridin-2-ylethynyl)phenyl]carbonyl}-2,3-dihydro-1H-isoindole] | 189 nM | –
O=C(c1ccc(C(F)(F)F)c(C#Cc2ccccn2)c1)N1CCc2cccnc2C1 [Example 99, 7-{[3-(Pyridin-2-ylethynyl)-4-(trifluoromethyl)phenyl]carbonyl}-5,6,7,8-tetrahydro-1,7-naphthyridine] | 34 nM | –
COc1ccc(C(=O)N2CCn3c(nnc3C(F)(F)F)C2)cc1C#Cc1ccccn1 [Example 49, 7-{[4-methoxy-3-(pyridin-2-ylethynyl)phenyl]carbonyl}-3-(trifluoromethyl)-5,6,7,8-tetrahydro[1,2,4]triazolo[4,3-a]pyrazine] | 269 nM | –
COc1ccc(C(=O)N2CCc3cccc(C4CCN(S(C)(=O)=O)CC4)c3C2)cc1C#Cc1ccccn1 [Example 23, 2-[4-methoxy-3-(pyridin-2-ylethynyl)benzoyl]-8-[1-(methylsulfonyl)piperidin-4-yl]-1,2,3,4-tetrahydroisoquinoline] | > 10000 nM | –
COc1ccc(C(=O)N2CCc3ccccc3C2Cc2ccccc2)cc1C#Cc1ccccn1 (centres unmarked) [Example 30, 1-benzyl-2-[4-methoxy-3-(pyridin-2-ylethynyl)benzoyl]-1,2,3,4-tetrahydroisoquinoline] | 327 nM | –
COc1ccc(C(=O)N2Cc3ccccc3C2CC(C)(C)O)cc1C#Cc1ccccn1 (centres unmarked) [Example 17, 1-{2-[4-methoxy-3-(pyridin-2-ylethynyl)benzoyl]-2,3-dihydro-1H-isoindol-1-yl}-2-methylpropan-2-ol] | 612 nM | –
COc1ccc(C(=O)N2CCc3nc[nH]c(=O)c3C2)cc1C#Cc1ccccn1 [Example 15, 6-[4-methoxy-3-(pyridin-2-ylethynyl)benzoyl]-5,6,7,8-tetrahydropyrido[4,3-d]pyrimidin-4(3H)-one] | 96 nM | –
COc1ccc(C(=O)N2CCNc3ccccc3C2)cc1C#Cc1ccccn1 [Example 56, 4-{[4-methoxy-3-(pyridin-2-ylethynyl)phenyl]carbonyl}-2,3,4,5-tetrahydro-1H-1,4-benzodiazepine] | 112 nM | –
O=C(c1ccc(C(F)(F)F)c(C#Cc2ccccn2)c1)N1Cc2ccncc2C1 [Example 102, 2-{[3-(Pyridin-2-ylethynyl)-4-(trifluoromethyl)phenyl]carbonyl}-2,3-dihydro-1H-pyrrolo[3,4-c]pyridine] | 120 nM | –

Source: US20100273772A1, “Bisaryl Alkynylamides as Negative Allosteric Modulators of Metabotropic Glutamate Receptor 5 (MGLUR5)” (Wyeth LLC, priority 2009, published 2010)
